The values that follow come from publication PMC6962373, “Combinatorial allosteric modulation of agonist response in a self-interacting G-protein coupled receptor” (Communications Biology, 2020).

Where two headings read alike, the source gives them in different places.

Common to all, as to format: cell-based, human
The subject of experiment [1] is HEK293 S1PR1 expressing cells. The experiment is described as follows: AKT phosphorylation ELISA in HEK293 S1PR1 expressing cells. The note with it: 0.1 µM S1P or FTY720-P for 5 min, PTX 300 ng/mL, CCG215022 50 µM. Here is the method:
HEK293 cells were plated in 96 multi-well plates and grown until 90% confluent. […] To quantify pERK1/2 and total ERK, 40 µg and 5 µg of total protein extract were used from each well, respectively. The chromogenic signals were read at the Sunrise Tecan multi-plate reader and expressed as pERK/ERKTotal signal ratio. […] AKT phosphorylation was quantified by ELISA as above in cell lysates after 5 min stimulation, with the AKT (pS473 + Total) ELISA Kit from Abcam (cat. n. ab176657). […]
pertussis toxin (PTX) for 18 hours and with 0.1% DMSO alone or with 50 µM CCG215022 […]
20 nM EGF for 5 min. pERK1/2 or pAKT were measured in the cell extracts by ELISA and expressed as relative units; n=12 independent experiments. (b) HEK293 cells expressing […]
(§1) ELISA and expressed as relative units; n=3 independent experiments. […]
In general terms: ELISA stands for enzyme-linked immunosorbent assay.

Experiment [2] deals with HEK293 S1PR1 expressing cells. The experiment in a line: EGF-mediated ERK1/2 phosphorylation in HEK293 S1PR1 expressing cells (inhibitor specificity control). The settings on record: CCG215022 50 µM, 20 nM EGF for 5 min. The procedure:
HEK293 cells were plated in 96 multi-well plates and grown until 90% confluent. After the S1P-starvation, the cell monolayers were treated as described in the text and then processed using the ERK1/2 (pT202/Y204 + Total) ELISA Kit from Abcam (cat n. ab176660), following the manufacturer guidelines and adding the HALT™ Proteases & Phosphatases inhibitor cocktail (Thermo Fisher Scientific) to the lysis buffer provided with the kit. To quantify pERK1/2 and total ERK, 40 µg and 5 µg of total protein extract were used from each well, respectively. The chromogenic signals were read at the Sunrise Tecan multi-plate reader and expressed as pERK/ERKTotal signal ratio. […] AKT phosphorylation was quantified by ELISA as above in cell lysates after 5 min stimulation, with the AKT (pS473 + Total) ELISA Kit from Abcam (cat. n. ab176657).
Supplementary Figure 2 | Effects of S1PR1 overexpression in HEK293 cells. […]
20 nM EGF for 5 min. pERK1/2 or pAKT were measured in the cell extracts by ELISA and expressed as relative units; n=12 independent experiments. […]
as §1
without 30 min pre-treatment with 100 µM ML056. Cell extracts were then analysed in immunoblotting for S1PR1, ERK1/2 and pERK1/2.

In experiment [3] the test system is HEK293 cells expressing S1PR1. The experiment is described as follows: ERK1/2 phosphorylation ELISA/immunoblot in HEK293 cells expressing S1PR1. Here is the method:
(§2) Human embryonic kidney-293 (HEK293, ATCC CRL-1573) cells were routinely maintained in complete DMEM/F12 1:1 mixture (Sigma Aldrich) containing 10% FBS and 0.5 mM N-acetyl cysteine. Mycoplasma detection was performed routinely by checking for cytoplasmic DNA and every six months with Universal Mycoplasma Detection Kit (ATCC 30–1012 K). The stop-less coding sequences of either wild-type S1PR1 or mS1PR1 (without the additional modifications present in the constructs for the protein production) were obtained from GeneArt (Thermo Fisher Scientific) and inserted into the HindIII/BamHI-digested pEGFP-N1 vector (Takara) to express S1PR1- and mS1PR1-eGFP. The pEFGP-N1-S1PR1 or pEFGP-N1-mS1PR1 plasmids were further modified by re-introducing the TAG stop codon at the 3′ end of the S1PR1 open reading frame to express untagged S1PR1 or mS1PR1, respectively, using the primer pair 5’-[…]-3’ and 5′-[…]-3′. Cell monolayers were transfected with JetPEI™ (Polyplus) and the appropriate plasmid vectors. Transfected cell cultures were passed once a week for three times and then the GFP^+ cells were sorted in a MoFlo XDP (Beckman Coulter). Sorted cell cultures were expanded and sorted again and the expression of the desired chimeric protein verified by immunoblot. Sorting was performed at the Flow Cytometry Resourc, Advanced Cytometry Technical Applications Laboratory of IRCCS San Raffaele Scientific Institute.
(§3) Two hundred nanomole of S1PR1/L of culture medium were used at […] receptor concentration. Under sterile conditions, purified receptor was first dialysed three times against the serum-free medium. Medium-equilibrated S1PR1 was then incubated 24 h at +4 °C in complete culture medium. The depletion procedure was performed twice for each lot of culture medium. […] The depleted medium was also used to prepare 1000× stock solutions of each of the two S1PR1 agonists or the GRK inhibitor CCG215022, and the 10× ML056 stock solution used in the cell-based experiments.
(§4) HEK293 cells were plated in 96 multi-well plates and grown until 90% confluent. […] To quantify pERK1/2 and total ERK, 40 µg and 5 µg of total protein extract were used from each well, respectively. The chromogenic signals were read at the Sunrise Tecan multi-plate reader and expressed as pERK/ERKTotal signal ratio. […] AKT phosphorylation was quantified by ELISA as above in cell lysates after 5 min stimulation, with the AKT (pS473 + Total) ELISA Kit from Abcam (cat. n. ab176657).

In experiment [4] the test system is HEK293 cells expressing mS1PR1. The experiment in a line: ERK1/2 phosphorylation ELISA/immunoblot in HEK293 cells expressing mS1PR1. The settings on record: for change of potency in stimulating ERK phosphorylation, mS1PR1 vs S1PR1 clones / maximal pERK response in mS1PR1 vs S1PR1 clones: 5 min stimulation, 1 pM–1 mM ligand. Here is the method:
95% CI are reported in Supplementary Fig. 4.
as §2, §3, §4

Experiment [5] has as its system HEK293 cells expressing S1PR1-eGFP. The experiment in a line: Confocal microscopy count of cytosolic eGFP+ clusters (receptor internalisation), S1PR1-eGFP. The note with it: 0.1 µM, 20 min. The procedure: (§5) Cells expressing S1PR1-eGFP or mS1PR1-eGFP were plated onto poly-L-lysine-coated 8 well µ-slides (Ibidi) at 3 × 10^4 cell/well. […] Images were deconvoluted using Huygens Professional Software (Scientific Volume Imaging). Mid-plane z-sections were used for counting cytosolic GFP^+ vesicles in cells stimulated for 20 min. Confocal imaging was performed at the Advanced Light and Electron Microscopy Bioimaging Centre of IRCCS San Raffaele Scientific Institute. We used a custom Matlab script (Supplementary Data 1) performing the following image analysis: (i) the membranes were segmented from the image, identifying regions of both absolute and local high intensity (Supplementary Fig. 9A–G) in order to include all the membranes independently of their intensity; (ii) morphological erosion was used to clear small objects and to smooth the edges of the identified membranes (Supplementary Fig. 9H, I); (iii) the region of interest was defined as the region completely enclosed by a membrane (Supplementary Fig. 9J, K); (iv) GFP^+ cytosolic vesicles were identified as local intensity maxima (Supplementary Fig. 9L–O) within the region of interest and counted. Experiments were replicated independently three times. The number of vesicles from 40 to 150 cells were counted as detailed in Fig. 4 legend and the statistical analysis performed with the GraphPad Prism software.

For experiment [6], the system named is HEK293 cells expressing mS1PR1-eGFP. The experiment is described as follows: Confocal microscopy count of cytosolic eGFP+ clusters (receptor internalisation), mS1PR1-eGFP. The note with it: 0.1 µM, 20 min. Here is the method:
as §5

In experiment [7] the test system is HEK293 cells expressing S1PR1-eGFP. The experiment is described as follows: Fluorescence-based analysis of S1PR1 down-modulation, S1PR1-eGFP. The settings on record: 4 h-long treatment.
Method: (§7) Cells were washed twice in ice-cold phosphate-buffered saline and lysed in 20 mM HEPES, 150 mM NaCl, 1% Triton X-100, 0.15% Nonidet P-40, 1× HALT™ Proteases & Phosphatases inhibitor cocktail, 1.25 U/mL Benzonase. Lysates were clarified were used and 50 µg of total protein from each sample were read in the Cary Eclipse Varian spectrofluorometer with 488 nm λEx and 509 nm λEm to measure the eGFP amount.
Experiment [8] has as its system HEK293 cells expressing mS1PR1-eGFP. The experiment is described as follows: Fluorescence-based analysis of S1PR1 down-modulation, mS1PR1-eGFP. The note with it: 4 h-long treatment.
Method: as §7
Experiment [9] has as its system HEK293 cells expressing S1PR1-eGFP. The experiment in a line: Anti-GFP immunoprecipitation of S1PR1-eGFP, immunoblot for β-arrestin 1/2 and ERK1/2. The note with it: 0.1 µM, co-immunoprecipitation; for S1PR1 binding to β-arrestins in the late signalling phase: 30 min. The procedure:
(§6) Cells were washed twice in ice-cold phosphate-buffered saline and lysed in 20 mM HEPES, 150 mM NaCl, 1% Triton X-100, 0.15% Nonidet P-40, 1× HALT™ Proteases and Phosphatases inhibitor cocktail, 1.25 U/mL Benzonase. Clarified lysates were incubated for 1 h at +4 °C with GFP-Trap® resin (Chromotek) and extensively washed with lysis buffer. Finally, the immunopurified material was eluted in 4% SDS and analysed by immunoblot. The equal loading was based on the GFP amount reading the samples in the Cary Eclipse Varian spectrofluorometer with 488 nm λEx and 509 nm λEm. In some experiments, cells expressing S1PR1 without the GFP tag were used as control and the equal loading was based on total protein concentration measured with the BCA method (G Biosciences).

For experiment [10], the system named is HEK293 cells expressing mS1PR1-eGFP. The experiment in a line: Anti-GFP immunoprecipitation of mS1PR1-eGFP, immunoblot for β-arrestin 1/2 and ERK1/2. The note with it: 0.1 µM, co-immunoprecipitation. The procedure:
as §6
For orientation: In western blotting, separated proteins are transferred to a membrane and probed.

Take `CC1=C(C(=O)Nc2ccc3[nH]ncc3c2)C(c2ccc(F)c(C(=O)NCc3ccccn3)c2)NC(=O)N1` (centres unmarked) [CCG215022]: the “effect on AKT phosphorylation” value in experiment [1] is reported as “not modified”. Moreover, the “effect on EGF-mediated ERK1/2 phosphorylation” value in experiment [2] is given as “does not inhibit”.
Consider `CCCCCCCCc1ccc(CC[C@](N)(CO)COP(=O)(O)O)cc1` [FTY720-P, FTY720 (S)-phosphate], for which the “time at which pERK1/2 response decreased to the baseline level” value in experiment [3] (0.1 µM agonist) is 20 min. Besides, the “time of early pERK1/2 peak” value in experiment [3] (0.1 µM agonist, S1P-starved cells) is 5 min. Besides, the “pERK1/2 kinetics in mS1PR1 cells” value in experiment [4] (0.1 µM agonist) is reported as “stable level of ERK1/2 phosphorylation”. In addition, in experiment [4], the “change of potency in stimulating ERK phosphorylation, mS1PR1 vs S1PR1 clones” value is “ten-fold decrease of their potency” and the “maximal pERK response in mS1PR1 vs S1PR1 clones” value was “not affected”. For the same compound, the “number of clusters/cell, 95% CI” value in experiment [5] is reported as 9.9–14.1 clusters/cell. The “number of clusters/cell, 95% CI” value in experiment [6] is 8.7–11 clusters/cell. The “S1PR1 level in cell lysates (receptor degradation)” value in experiment [7] was “barely detectable”. The “mS1PR1 level in cell lysates (receptor degradation)” value in experiment [8] is “remained stable”. In addition, in experiment [9], the “S1PR1 binding to β-arrestins in the late signalling phase” value is given as “stable binding to β-arrestins” and the “ERK1/2 recruited onto activated S1PR1” value was “did not show an increase of the interaction with ERK1/2 above baseline levels”. Moreover, the “stable interaction of mS1PR1 with β-arrestin” value in experiment [10] was “neither S1P nor FTY720-P were capable to induce a stable interaction”. Moreover, the “effect on AKT phosphorylation” value in experiment [1] is given as “induced”.
As to `CCCCCCc1cccc(NC(=O)[C@H](N)CCP(=O)(O)O)c1` [ML056], in experiment [3] (30 min pre-treatment with 100 µM ML056, then 0.1 µM S1P, immunoblot), the “effect on agonist-induced signalling response (pERK1/2)” value is given as “abrogated”.
As to `CCCCCCCCCCCCC/C=C/[C@@H](O)[C@@H](N)COP(=O)(O)O` [S1P, Sphingosine 1-phosphate], in experiment [3], the “pERK1/2 still detectable after 60 min, % of its maximal value” was 50% and the “time of early pERK1/2 peak” value turned out to be 5 min. For the same compound, in experiment [4], the “change of potency in stimulating ERK phosphorylation, mS1PR1 vs S1PR1 clones” value is “ten-fold decrease of their potency” and the “maximal pERK response in mS1PR1 vs S1PR1 clones” value is “not affected”. Moreover, the “number of clusters/cell, 95% CI” value in experiment [5] is 6.7–10.2 clusters/cell. The “number of clusters/cell, 95% CI” value in experiment [6] is 5.7–7.7 clusters/cell. In [9], the “S1PR1 binding to β-arrestins in the late signalling phase” value is given as “only a limited interaction” and the “ERK1/2 recruited onto activated S1PR1” value is given as “recruited more ERK1/2”. For the same compound, the “stable interaction of mS1PR1 with β-arrestin” value in experiment [10] is on record as “neither S1P nor FTY720-P were capable to induce a stable interaction”. The “effect on AKT phosphorylation” value in [1] is recorded as “induced”.
On to pertussis toxin, for which the “effect on S1P- and FTY720-P-induced ERK1/2 phosphorylation” value in experiment [3] (300 ng/mL pertussis toxin for 18 h, then 0.1 µM agonist) is “undetectable”. Also, in experiment [4] (300 ng/mL PTX, stimulation with either agonist), the “effect on agonist-induced ERK phosphorylation in mS1PR1-expressing clones” value is reported as “reduced the ERK phosphorylation to basal”. Besides, the “effect on AKT phosphorylation” value in experiment [1] was “abolishes”.
